Source: patent publication US20260262641A1 (priority 2023, published 2026)

Experiments:
Assay type in all cases: in vivo
[1] = tested on: couch mite (Aceria cynodoniensis); assay: Field trial in hybrid couch turfgrass, control of couch mite (Example 7)
Protocol: (§1) A field trial was conducted in hybrid couch turfgrass, to evaluate fenpyroximate for control of couch mite (Aceria cynodoniensis). The trial was located at Oxley Golf Club, Oxley Queensland (−27.57077, 152.99762). […] All treatments were applied using a hand boom fitted with XR11004 nozzles and in a spray volume of 430 L/ha.
The severity of couch mite damage to the terminal growth point (known as witches' broom) was assessed pre-spraying, then at 42 and 56 days after the second application. The density of couch mite was assessed pre-spraying and at 28 days after the second application. Turf quality was assessed on a 0 to 9 rating scale (0=dead; 9=best quality/color) prior to the first application and 14 days after the second application.
(§2) All data was statistically analyzed using analysis of variance and Fisher's protected least significant different test (Fishers LSD). The level of significance for all tests was P<0.05.

[2] = tested on: ground pearl (Margarodes spp); assay: Field trial in kikuyu turf, control of ground pearl, Robina (Example 6)
Protocol: A field trial was conducted in kikuyu turf, to evaluate fenpyroximate for control of ground pearl (Margarodes spp). The trial was located at Robina, Queensland (−28.069442, 153.401817), in an area with a known infestation of ground pearl.
All treatments were applied using a hand boom fitted with XC08 nozzles, in a spray volume of 443 L/ha.
The ground pearl density by species was assessed prior to the first application and again 21 days after the third application by sampling 20 cores per plot and recording the number of eggs and adults. Turf vigor was assessed on a 0 to 10 rating scale (0=dead; 10=best quality/color) prior to the first application and 42 days after the third application.
as §2

[3] = tested on: couch mite (Aceria cynodoniensis); assay: Field trial in Santa Ana couch turfgrass, control of couch mite (Example 3)
Protocol: as §1, with “Santa Ana” for “hybrid”, “Terrey Hills” for “Oxley”, “Golf and Country” for “Golf”, “New South Wales (−33.668, 151.217).” for “Oxley Queensland (−27.57077, 152.99762).”
The incidence of couch mite damage, to the terminal growth point (known as witches' broom) was assessed 42 days after the second application. Turf biomass and vigor were assessed at the same timing on a 0 to 10 rating scale, along with NDVI using a Greenseeker.
as §2

[4] = tested on: ground pearl (Margarodes spp); assay: Field trial in kikuyu turf, control of ground pearl, Robina (Example 6); conditions: 56 DAA3 (head); 0=dead; 10=best quality/color; product rate mL/ha: Meridian 1200, Kohinor 350 SC 1500, Fenpyroximate 50 SC 4000; each with Stamina B 20000
[5] = tested on: ground pearl (Margarodes spp); assay: Field trial in kikuyu turf, control of ground pearl, Sydney (Example 2)
Protocol: A field trial was conducted in kikuyu turf, to evaluate fenpyroximate for control of ground pearl (Margarodes spp). The trial was located at Sydney University, New South Wales (−33.888, 151.188), in an area with a known infestation of ground pearl.
All treatments were applied using a hand boom fitted with XR11004 nozzles, in a spray volume of 430 L/ha.
The ground pearl density by species was assessed by sampling 20 cores per plot and recording the number of eggs and adults, and Normalized Difference Vegetation Index (NDVI) was assessed 56 days after the third application using a Greenseeker.
as §2

[6] = Pre-spray (baseline), witches' broom
[7] = 21 days after third application, product rate mL or g/ha: Meridian 1200, Kohinor 350 SC 1500, Fenpyroximate 50 SC 4000 (200 g ai/ha), each with Stamina B 20000
[8] = Pre-spray (baseline), 20 cores per plot
[9] = versus untreated, P<0.05, with PE 6200

**Q.** For `Cc1nn(C)c(Oc2ccccc2)c1C=NOCc1ccc(C(=O)OC(C)(C)C)cc1` [Fenpyroximate], which “Couch mites/3 terminals, 28 DAA2” value ([1]; 28 DAA2, product rate mL/ha: Abazine Miticide 1350, Fenpyroximate 50 SC 2000) is on record?
**A.** 45.8 mites/3 terminals

**Q.** What about the “Turf quality (0-9), 14 DAA2” value ([1]; 14 days after second application, 0=dead, 9=best quality/color, product rate mL/ha: Abazine Miticide 1350, Fenpyroximate 50 SC 2000) of the same molecule?
**A.** 5.1

**Q.** What about the “% Severity mite damage, 42 DAA2” value ([1]; 42 days after second application, product rate mL/ha: Abazine Miticide 1350, Fenpyroximate 50 SC 2000 (100 g ai/ha)) of the same molecule?
**A.** 7.0 a %

**Q.** What about the “% Severity mite damage, 56 DAA2” value ([1]; 56 days after second application, product rate mL/ha: Abazine Miticide 1350, Fenpyroximate 50 SC 2000 (100 g ai/ha)) of the same molecule?
**A.** 6.5 a %

**Q.** What about the “Couch mites/3 terminals, Pre-spray” value ([1]; Pre-spray (baseline)) of the same molecule?
**A.** 130.5 mites/3 terminals

**Q.** And the “Turf quality (0-9), Pre-spray” value ([1]; Pre-spray (baseline), 0=dead, 9=best quality/color)?
**A.** 4.5

**Q.** What about the “% Severity mite damage, Pre-spray” value [1, 6] of the same molecule?
**A.** 40.0%

**Q.** What about the “density of couch mite (in words)” value ([1]; versus untreated, P<0.05) of the same molecule?
**A.** significantly both reduced

**Q.** What about the “turf quality (in words)” value ([1]; versus untreated, P<0.05) of the same molecule?
**A.** improved

**Q.** And the “Ground pearls/plot, Adults, 21 DAA3” value [2, 7]?
**A.** 1.0 ab ground pearls/plot

**Q.** What about the “Ground pearls/plot, Eggs, 21 DAA3” value [2, 7] of the same molecule?
**A.** 1.0 abc ground pearls/plot

**Q.** What about the “Turf vigor (0-10), Pre-spray” value ([2]; Pre-spray (baseline), 0=dead, 10=best quality/color) of the same molecule?
**A.** 5.1

**Q.** What about the “Ground pearls/plot, Adults, Pre-spray” value [2, 8] of the same molecule?
**A.** 6.7 ground pearls/plot

**Q.** And the “Ground pearls/plot, Eggs, Pre-spray” value [2, 8]?
**A.** 4.0 ground pearls/plot

**Q.** What about the “density of ground pearl eggs and adults (in words)” value ([2]; versus untreated, P<0.05) of the same molecule?
**A.** significantly reduced

**Q.** And the “turf vigor (in words)” value ([2]; versus untreated, P<0.05)?
**A.** significantly improved

**Q.** What about the “Biomass and vigor (0-10), 42 DAA2” value ([3]; 42 DAA2, 0 to 10 rating scale, product rate mL/ha: Prophesy 500, Thumper 2000 (+ BS 1000 0.25% v/v), Fenpyroximate 50 SC 4000) of the same molecule?
**A.** 4.8

**Q.** And the “NDVI, 42 DAA2” value ([3]; 42 DAA2, Greenseeker, product rate mL/ha: Prophesy 500, Thumper 2000 (+ BS 1000 0.25% v/v), Fenpyroximate 50 SC 4000)?
**A.** 0.63

**Q.** What about the “% Incidence mite damage, 42 DAA2” value ([3]; 42 days after second application, product rate mL/ha: Prophesy 500, Thumper 2000 (+ BS 1000 0.25% v/v), Fenpyroximate 50 SC 4000 (200 g ai/ha)) of the same molecule?
**A.** 47.0%

**Q.** What about the “Biomass and vigor (0-10), Pre-spray” value ([3]; Pre-spray (baseline), 0 to 10 rating scale) of the same molecule?
**A.** 4.1 a

**Q.** What about the “NDVI, Pre-spray” value ([3]; Pre-spray (baseline), Greenseeker) of the same molecule?
**A.** 0.55 a

**Q.** And the “% Incidence mite damage, Pre-spray” value [3, 6]?
**A.** 95.8 a %

**Q.** What about the “incidence of couch mite damage (in words)” value ([3]; versus untreated, P<0.05) of the same molecule?
**A.** significantly reduced

**Q.** And the “turf biomass and vigor and NDVI (in words)” value ([3]; versus untreated, P<0.05)?
**A.** significantly improved

**Q.** What about the “Turf vigor (0-10), 56 DAA3” value [4] of the same molecule?
**A.** 6.2 a

**Q.** What about the “NDVI, Pre-spray” value ([5]; Pre-spray (baseline), kikuyu turf, Greenseeker) of the same molecule?
**A.** 8.0

**Q.** What about the “Ground pearls/plot, Adults, Pre-spray” value ([5]; sc) of the same molecule?
**A.** 4.0 a ground pearls/plot

**Q.** And the “Ground pearls/plot, Eggs, Pre-spray” value ([5]; sc)?
**A.** 10.3 a ground pearls/plot

**Q.** And the “Ground pearls/plot, Adults, 56 DAA3” value ([5]; sc, 200 g/ha, 1344 h)?
**A.** 12.8 a ground pearls/plot

**Q.** And the “Ground pearls/plot, Eggs, 56 DAA3” value ([5]; sc, 200 g/ha, 1344 h)?
**A.** 5.3 a ground pearls/plot

**Q.** What about the “NDVI, 56 DAA3” value ([5]; sc, 1344 h) of the same molecule?
**A.** 7.6

**Q.** And the “turf color and quality / NDVI (in words)” value ([5]; versus untreated, P<0.05)?
**A.** significantly improved

**Q.** What about the “density of ground pearl adults (in words)” value [5, 9] of the same molecule?
**A.** significantly reduced

**Q.** And the “density of ground pearl eggs (in words)” value [5, 9]?
**A.** significantly reduced
